Test results from US20260263573A1, “Tumor Immunotherapy” (PingShan Translational Medicine Center, Shenzhen Bay …, priority 2022, published 2026).

Test system: B16-OVA melanoma
Assay: Lung metastasis model
Assay type: in vivo, mice
Conditions: day 20 after tail vein injection of B16-OVA
Procedure: Furthermore, a lung metastasis model was selected to evaluate the prevention of lung colonization of melanoma with nanocomposites (FIG. 21a). The administration was similar to that of the tumor model, except that 5×10^5 B16-OVA cells per mouse were injected via tail vein 7 days after the end of the last administration. The mice were dissected on day 20 after injection, the lungs of the mice were removed, and the lungs were washed with Fekete's eluent (70 mL of alcohol, 10 mL of formaldehyde, 5 mL of glacial acetic acid, 15 mL of water). After decoloration, lung tumor nodules were counted. Finally, all tissues were sent to Univ company for tissue section and H&E staining analysis.

For “Ac-WMβASIINFEKL (WMXSIINFEKL; N-terminal acetyl; beta-alanine; N-terminal Acetylation and Xaa represents a ??-alanine isomer of alanine at the 3AA position; (3)..(3) Xaa is ??-alanine (beta-alanine), an isomer of Alanine) [OVA]”, the “H&E staining of lung tissue: melanoma cell infestation” value was “lung cells infected with melanoma cells were also found”.
